The record followed here is PubChem BioAssay (NCI).

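48-hour exposure; five concentrations; linearly interpolated endpoints. GI50 = concentration required for 50% inhibition of growth. TGI is the concentration that stops growth completely.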

Test systems include A549 NSCLC; CCRF-CEM leukemia; UACC-62 melanoma; SN12C renal; COLO 205 colon; SNB-19 CNS; SK-OV-3 ovarian; OVCAR-5 ovarian; NCI-H226 lung.
Common to all, as to experiment: DTP human tumour cell line panel, 48 h

A word on the TGI: it is the concentration giving total growth inhibition. A high value points to less potent growth arrest. Regarding `O=C1c2ccccc2C(=O)N1C/C=N/NS(=O)(=O)c1cccc([N+](=O)[O-])c1`, the TGI in the assay on A549 NSCLC, with CCRF-CEM leukemia, in the assay with UACC-62 melanoma, in the assay on SN12C renal, in the assay with COLO 205 colon and in the assay with SNB-19 CNS was > 100 µM in each case.

As to `COc1ccc(-c2cc(=O)c3c(C)ccnc3[nH]2)cc1`, the TGI in the assay with A549 NSCLC was > 100 µM; in the assay with CCRF-CEM leukemia, 44.8 µM; in the assay with SK-OV-3 ovarian it was > 100 µM; in the assay with UACC-62 melanoma it was 32.6 µM; in the assay on OVCAR-5 ovarian, 68.4 µM; in the assay on SN12C renal it was > 100 µM. Further, the figures for the TGI in the assay on COLO 205 colon, in the assay with NCI-H226 lung and in the assay with SNB-19 CNS were 16.4 µM, > 100 µM and > 100 µM, respectively.

Consider `CN(c1ccccc1)c1nc(=[N+](C)C)ss1`, for which the TGI in the assay on A549 NSCLC, in the assay on CCRF-CEM leukemia, in the assay on SK-OV-3 ovarian, in the assay with UACC-62 melanoma, with OVCAR-5 ovarian and in the assay with SN12C renal was > 100 µM in each case. The TGI in the assay with NCI-H226 lung and with SNB-19 CNS was > 100 µM each time.

By GI50 is commonly meant the concentration at which growth is held to half of that of the control. Turning to `O=c1c2ccccc2c(=O)n2n1-c1cccc(c1)CSSCc1cccc-2c1`, the GI50 in the assay with A549 NSCLC, in the assay with CCRF-CEM leukemia, with UACC-62 melanoma, with OVCAR-5 ovarian, with SN12C renal and in the assay on COLO 205 colon was > 100 µM throughout. Besides, the GI50 in the assay on NCI-H226 lung and in the assay on SNB-19 CNS was > 100 µM throughout. Moreover, the concentration for total growth inhibition (TGI) with A549 NSCLC, in the assay with CCRF-CEM leukemia, with SK-OV-3 ovarian, with UACC-62 melanoma, in the assay on OVCAR-5 ovarian and in the assay with SN12C renal was > 100 µM throughout. Moreover, the TGI in the assay on COLO 205 colon, in the assay with NCI-H226 lung and in the assay on SNB-19 CNS was > 100 µM each time.

As for `CCC(=O)N1C(=S)SC[C@H]1C(=O)OC`, the TGI with A549 NSCLC, with CCRF-CEM leukemia, in the assay on SK-OV-3 ovarian, in the assay on UACC-62 melanoma, with OVCAR-5 ovarian and with SN12C renal was > 100 µM in each case. The TGI in the assay with COLO 205 colon, with NCI-H226 lung and with SNB-19 CNS was > 100 µM throughout.

Turning to `O=[N+]([O-])c1ccc(Cl)c(C2CC(c3cccc4ccccc34)=Nc3ccccc3S2=O)c1` (stereo unspecified), the TGI in the assay on A549 NSCLC is > 100 µM; in the assay with CCRF-CEM leukemia, 11.1 µM; in the assay with SK-OV-3 ovarian it was > 100 µM; in the assay with UACC-62 melanoma, 40.8 µM; in the assay on OVCAR-5 ovarian, 76.1 µM; in the assay on SN12C renal, > 60.4 µM. The TGI in the assay with COLO 205 colon is 97.7 µM; in the assay with NCI-H226 lung, > 54.5 µM; in the assay on SNB-19 CNS, > 53.8 µM.

As to `CCN(CC)CC(C(=O)Nc1c(C)cccc1C)/C(C)=N\NC(=S)NN` (stereo unspecified), the TGI in the assay on A549 NSCLC, in the assay with CCRF-CEM leukemia, in the assay on SK-OV-3 ovarian, with UACC-62 melanoma, with OVCAR-5 ovarian and with COLO 205 colon was > 100 µM throughout. Besides, the TGI in the assay with NCI-H226 lung is > 100 µM.

In the case of `CCOc1ccc2c(c1)[n+]([O-])c(C(N)=O)c(N)[n+]2[O-]`, the TGI in the assay on A549 NSCLC, in the assay on CCRF-CEM leukemia, with SK-OV-3 ovarian, in the assay on OVCAR-5 ovarian, with SN12C renal and with COLO 205 colon was > 100 µM throughout. In addition, the total growth inhibition concentration (TGI) in the assay with NCI-H226 lung and with SNB-19 CNS was > 100 µM each time.

As to `NCCNCCNCc1c2ccccc2c(CNCCNCCN)c2ccccc12`, the TGI in the assay with A549 NSCLC, with CCRF-CEM leukemia, in the assay on SK-OV-3 ovarian, in the assay on UACC-62 melanoma, with OVCAR-5 ovarian and in the assay with SN12C renal was > 100 µM each time. The TGI in the assay with COLO 205 colon and in the assay with NCI-H226 lung was > 100 µM throughout.

Take `O=S1(=O)[C@H](c2ccccc2)c2c(-c3ccccc3)sc(-c3ccccc3)c2[C@@H]1c1ccccc1`: the TGI in the assay on A549 NSCLC, in the assay on CCRF-CEM leukemia, in the assay with SK-OV-3 ovarian, in the assay on UACC-62 melanoma, in the assay with OVCAR-5 ovarian and with SN12C renal was > 100 µM in each case. The concentration for total growth inhibition (TGI) in the assay on COLO 205 colon and with SNB-19 CNS was > 100 µM each time.

`CC1COS(=O)N1c1ccccc1` (stereo unspecified): the TGI with A549 NSCLC, in the assay with CCRF-CEM leukemia, with SK-OV-3 ovarian, with UACC-62 melanoma, in the assay with OVCAR-5 ovarian and with COLO 205 colon was > 100 µM throughout. Besides, the TGI in the assay with NCI-H226 lung is > 100 µM.
